Test results as given in patent US4345938A, “Herbicidal 2-haloacetanilides” (Monsanto Company, priority 1980, dated 1982).
Read-outs that look alike come from different tables or passages of the source.

How the values were obtained:
Format in all cases: in vivo
Monochoria vaginalis = experiment: Field transplant rice test, applied 0 DAT, MV; conditions: Pontederia vaginalis, 0 h, read-out: Percent Inhibition, MV; for inhibition at 375 g/ha: 0.375 Kg/Ha; for inhibition at 750 g/ha: 0.75 Kg/Ha; for inhibition at 1500 g/ha: 1.5 Kg/Ha; for inhibition at 3000 g/ha: 3.0 Kg/Ha
Procedure: (§1) The test data in Table III for all compounds was obtained under identical test conditions. The weeds used in the tests herein have the following abbreviations in the tables: Echinochloa crus-galli (EC), Monochloria vaginalis (MV), Cyperus Serotinus (CS), Eleocharis Kuroguwai (EK) and Sagittaria trifolia (ST).
(§2) In further comparative tests, a preferred compound of this invention (Example 1) was tested in the field with prior art Compounds A-D. These tests were conducted under conditions reflecting herbicide application times generally favorable to all herbicides in the test. The timing of application of herbicides to transplant rice is very important, whether, as in some instances, prior to transplanting the rice; in other instances, at the time of transplanting or else after transplanting. Application times are conventionally referred to as "days before transplant" (DBT) or "days after transplant" ("DAT"). The field test data in Table IV was obtained from a test in which the herbicides were applied at the time of transplant, i.e., "0 DAT", with observations being made weekly up to six weeks after transplant ("WAT") beginning at two weeks after transplant; for illustrative and representative purposes, only the early, middle and late period observations, i.e., 2 WAT, 4 WAT and 6 WAT, are shown in Table IV. The data in Table IV is for rates of application common to all herbicides in the test, i.e., from 3.0 kg/ha (2.67 lb/A) down to 0.375 kg/ha (0.34 lb/A). All herbicides were applied at their actual or expected use rates, i.e., as granules containing 2.5% by weight herbicide for the compound of Example 1, Compounds B, C and D and 5.0% by weight for Compound A.

Cyperus serotinus [1] = experiment: Field transplant rice test, applied 0 DAT, CS; conditions: 0 h, read-out: Percent Inhibition, CS; for inhibition at 375 g/ha: 0.375 Kg/Ha; for inhibition at 750 g/ha: 0.75 Kg/Ha; for inhibition at 1500 g/ha: 1.5 Kg/Ha; for inhibition at 3000 g/ha: 3.0 Kg/Ha
Procedure: as §1, §2

Sagittaria trifolia = experiment: Field transplant rice test, applied 0 DAT, ST; conditions: 0 h, read-out: Percent Inhibition, ST; for inhibition at 375 g/ha: 0.375 Kg/Ha; for inhibition at 750 g/ha: 0.75 Kg/Ha; for inhibition at 1500 g/ha: 1.5 Kg/Ha; for inhibition at 3000 g/ha: 3.0 Kg/Ha
Procedure: as §1, §2

Cyperus serotinus [2] = experiment: Field transplant rice test, applied 9 DAT, CS; conditions: for inhibition at 375 g/ha / inhibition at 750 g/ha / inhibition at 1500 g/ha / inhibition at 3000 g/ha: Cyperus serotinus, 216 h, read-out: Percent Inhibition, CS; for inhibition at 375 g/ha: 0.375 Kg/Ha; for inhibition at 750 g/ha: 0.75 Kg/Ha; for inhibition at 1500 g/ha: 1.5 Kg/Ha; for inhibition at 3000 g/ha: 3.0 Kg/Ha; for selectivity factor (GR15/GR85), CS in transplant rice: between 3 WAT and 7 WAT
Description: In the discussion of data below, occasional reference is made to herbicide application rates symbolized as "GR15 " and "GR85 "; these rates are given in kilograms per hectare (kg/ha) which are convertible into pounds per acre (lbs/A) by dividing the kg/ha rate by 1.12.
A further guide to the effectiveness of a chemical as a selective herbicide is the "selectivity factor" ("SF") for a herbicide in given crops and weeds. The selectivity factor is a measure of the relative degree of crop safety and weed injury and is expressed in terms of the GR15 /GR85 ratio, i.e., the GR15 rate for the crop divided by the GR85 rate for the weed, both rates in kg/ha (lb/A.)
as §1, §2
In Table V are presented field data showing the relative performance of the compound of Example 1 and Compounds A-D applied 9 DAT, with observations being made weekly from 3 WAT to 7 WAT; again, for illustrative and representative purposes, only the early, middle and late period observations are reported in Table V, the herbicide rates and concentrations of active ingredients the same as is shown in Table IV.

CCCCOCCN(C(=O)CCl)c1c(CC)cccc1CC [Compound B, 2',6'-diethyl-N-(n-butoxyethyl)-2-chloroacetanilide]
inhibition at 375 g/ha (Monochoria vaginalis; 2 WAT): 97% | inhibition at 375 g/ha (Monochoria vaginalis; 4 WAT): 90% | inhibition at 375 g/ha (Monochoria vaginalis; 6 WAT): 80% | inhibition at 750 g/ha (Monochoria vaginalis; 2 WAT): 95% | inhibition at 750 g/ha (Monochoria vaginalis; 4 WAT): 98% | inhibition at 750 g/ha (Monochoria vaginalis; 6 WAT): 100% | inhibition at 1500 g/ha (Monochoria vaginalis; 2 WAT): 98% | inhibition at 1500 g/ha (Monochoria vaginalis; 4 WAT): 100% | inhibition at 1500 g/ha (Monochoria vaginalis; 6 WAT): 100% | inhibition at 3000 g/ha (Monochoria vaginalis; 2 WAT): 100% | inhibition at 3000 g/ha (Monochoria vaginalis; 4 WAT): 100% | inhibition at 3000 g/ha (Monochoria vaginalis; 6 WAT): 97% | inhibition at 375 g/ha (Cyperus serotinus [1]; 2 WAT): 62% | inhibition at 375 g/ha (Cyperus serotinus [1]; 4 WAT): 55% | inhibition at 375 g/ha (Cyperus serotinus [1]; 6 WAT): 3% | inhibition at 750 g/ha (Cyperus serotinus [1]; 2 WAT): 70% | inhibition at 750 g/ha (Cyperus serotinus [1]; 4 WAT): 53% | inhibition at 750 g/ha (Cyperus serotinus [1]; 6 WAT): 12% | inhibition at 1500 g/ha (Cyperus serotinus [1]; 2 WAT): 82% | inhibition at 1500 g/ha (Cyperus serotinus [1]; 4 WAT): 83% | inhibition at 1500 g/ha (Cyperus serotinus [1]; 6 WAT): 45% | inhibition at 3000 g/ha (Cyperus serotinus [1]; 2 WAT): 72% | inhibition at 3000 g/ha (Cyperus serotinus [1]; 4 WAT): 62% | inhibition at 3000 g/ha (Cyperus serotinus [1]; 6 WAT): 37% | inhibition at 375 g/ha (Sagittaria trifolia; 2 WAT): 27% | inhibition at 375 g/ha (Sagittaria trifolia; 4 WAT): 10% | inhibition at 375 g/ha (Sagittaria trifolia; 6 WAT): 5% | inhibition at 750 g/ha (Sagittaria trifolia; 2 WAT): 27% | inhibition at 750 g/ha (Sagittaria trifolia; 4 WAT): 15% | inhibition at 750 g/ha (Sagittaria trifolia; 6 WAT): 7% | inhibition at 1500 g/ha (Sagittaria trifolia; 2 WAT): 62% | inhibition at 1500 g/ha (Sagittaria trifolia; 4 WAT): 12% | inhibition at 1500 g/ha (Sagittaria trifolia; 6 WAT): 7% | inhibition at 3000 g/ha (Sagittaria trifolia; 2 WAT): 32% | inhibition at 3000 g/ha (Sagittaria trifolia; 4 WAT): 30% | inhibition at 3000 g/ha (Sagittaria trifolia; 6 WAT): 13% | inhibition at 375 g/ha (Cyperus serotinus [2]; 3 WAT): 93% | inhibition at 375 g/ha (Cyperus serotinus [2]; 5 WAT): 100% | inhibition at 375 g/ha (Cyperus serotinus [2]; 7 WAT): 77% | inhibition at 750 g/ha (Cyperus serotinus [2]; 3 WAT): 78% | inhibition at 750 g/ha (Cyperus serotinus [2]; 5 WAT): 67% | inhibition at 750 g/ha (Cyperus serotinus [2]; 7 WAT): 67% | inhibition at 1500 g/ha (Cyperus serotinus [2]; 3 WAT): 87% | inhibition at 1500 g/ha (Cyperus serotinus [2]; 5 WAT): 85% | inhibition at 1500 g/ha (Cyperus serotinus [2]; 7 WAT): 67% | inhibition at 3000 g/ha (Cyperus serotinus [2]; 3 WAT): 75% | inhibition at 3000 g/ha (Cyperus serotinus [2]; 5 WAT): 72% | inhibition at 3000 g/ha (Cyperus serotinus [2]; 7 WAT): 65% | selectivity factor (GR15/GR85), CS in transplant rice (Cyperus serotinus [2]): 1

CCCCOCN(C(=O)CCl)c1c(C)cccc1C(C)(C)C [Compound C, 2'-methyl-6'-tert-butyl-N-(n-butoxymethyl)-2-chloroacetanilide]
inhibition at 375 g/ha (Monochoria vaginalis; 2 WAT): 100% | inhibition at 375 g/ha (Monochoria vaginalis; 4 WAT): 100% | inhibition at 375 g/ha (Monochoria vaginalis; 6 WAT): 97% | inhibition at 750 g/ha (Monochoria vaginalis; 2 WAT): 100% | inhibition at 750 g/ha (Monochoria vaginalis; 4 WAT): 100% | inhibition at 750 g/ha (Monochoria vaginalis; 6 WAT): 100% | inhibition at 1500 g/ha (Monochoria vaginalis; 2 WAT): 100% | inhibition at 1500 g/ha (Monochoria vaginalis; 4 WAT): 100% | inhibition at 1500 g/ha (Monochoria vaginalis; 6 WAT): 100% | inhibition at 3000 g/ha (Monochoria vaginalis; 2 WAT): 100% | inhibition at 3000 g/ha (Monochoria vaginalis; 4 WAT): 100% | inhibition at 3000 g/ha (Monochoria vaginalis; 6 WAT): 100% | inhibition at 375 g/ha (Cyperus serotinus [1]; 2 WAT): 93% | inhibition at 375 g/ha (Cyperus serotinus [1]; 4 WAT): 92% | inhibition at 375 g/ha (Cyperus serotinus [1]; 6 WAT): 72% | inhibition at 750 g/ha (Cyperus serotinus [1]; 2 WAT): 70% | inhibition at 750 g/ha (Cyperus serotinus [1]; 4 WAT): 82% | inhibition at 750 g/ha (Cyperus serotinus [1]; 6 WAT): 77% | inhibition at 1500 g/ha (Cyperus serotinus [1]; 2 WAT): 93% | inhibition at 1500 g/ha (Cyperus serotinus [1]; 4 WAT): 99% | inhibition at 1500 g/ha (Cyperus serotinus [1]; 6 WAT): 100% | inhibition at 3000 g/ha (Cyperus serotinus [1]; 2 WAT): 95% | inhibition at 3000 g/ha (Cyperus serotinus [1]; 4 WAT): 100% | inhibition at 3000 g/ha (Cyperus serotinus [1]; 6 WAT): 100% | inhibition at 375 g/ha (Sagittaria trifolia; 2 WAT): 30% | inhibition at 375 g/ha (Sagittaria trifolia; 4 WAT): 5% | inhibition at 375 g/ha (Sagittaria trifolia; 6 WAT): 0% | inhibition at 750 g/ha (Sagittaria trifolia; 2 WAT): 33% | inhibition at 750 g/ha (Sagittaria trifolia; 4 WAT): 18% | inhibition at 750 g/ha (Sagittaria trifolia; 6 WAT): 8% | inhibition at 1500 g/ha (Sagittaria trifolia; 2 WAT): 38% | inhibition at 1500 g/ha (Sagittaria trifolia; 4 WAT): 30% | inhibition at 1500 g/ha (Sagittaria trifolia; 6 WAT): 17% | inhibition at 3000 g/ha (Sagittaria trifolia; 2 WAT): 53% | inhibition at 3000 g/ha (Sagittaria trifolia; 4 WAT): 35% | inhibition at 3000 g/ha (Sagittaria trifolia; 6 WAT): 18% | inhibition at 375 g/ha (Cyperus serotinus [2]; 3 WAT): 58% | inhibition at 375 g/ha (Cyperus serotinus [2]; 5 WAT): 60% | inhibition at 375 g/ha (Cyperus serotinus [2]; 7 WAT): 43% | inhibition at 750 g/ha (Cyperus serotinus [2]; 3 WAT): 93% | inhibition at 750 g/ha (Cyperus serotinus [2]; 5 WAT): 93% | inhibition at 750 g/ha (Cyperus serotinus [2]; 7 WAT): 82% | inhibition at 1500 g/ha (Cyperus serotinus [2]; 3 WAT): 62% | inhibition at 1500 g/ha (Cyperus serotinus [2]; 5 WAT): 87% | inhibition at 1500 g/ha (Cyperus serotinus [2]; 7 WAT): 83% | inhibition at 3000 g/ha (Cyperus serotinus [2]; 3 WAT): 95% | inhibition at 3000 g/ha (Cyperus serotinus [2]; 5 WAT): 100% | inhibition at 3000 g/ha (Cyperus serotinus [2]; 7 WAT): 100% | selectivity factor (GR15/GR85), CS in transplant rice (Cyperus serotinus [2]): 4
